The values below come from patent US11419843B2, “Small molecule BCL-2 functional converters as cancer therapeutics” (Oregon State University, priority 2016, dated 2022).

The test system of series [1] is MCF-7/Vector and MCF-7/Bcl-2 cells. Nature of the series: Viability of MCF-7 cells with high and low Bcl-2. The note with it: 10% FBS. Type of series: cell-based, human. Here is the method:
MDA-MB-231 and MCF-7 breast cancer cell lines stably overexpressing Bcl-2 were generated via electroporation and subsequent clonal expansion in G418-containing media. MDA-MB-231 cell clones with sufficiently high expression of Bcl-2 (MDA-MB-231/Bcl-2) determined by western blotting was selected for screening along with their vector controls (MDA-MB-231/Vector). Similarly MCF-7 cells clones were selected for characterization of lead molecules.
Cell viability was determined using CellTiter Glo Luminescent Cell Viability Assay (Promega, Madison, Wis.) as per manufacturer instructions. DAPI stain was used to assess apoptosis. Colony forming assays were performed as described previously.

Series [2] relates to H460 parental and derived paclitaxel resistant cells. The experiment in a line: Viability of H460 parental and paclitaxel resistant cells. Type of series: cell-based, human. The note with it: for Viability of H460 resistant vs parental line: 72 hours. The method, then:
Percentage viability relative to vehicle treatment was calculated. Representative of three independent assays conducted in triplicate.
FIG. […] Percentage viability relative to vehicle treatment. Representative of three independent assays conducted in triplicate.
Representative of three independent assays conducted in triplicate.
Cell lines were obtained from ATCC and maintained according to manufacturer's instructions. The human lung cancer cell line NCI-H460, H69AR (ATCC) were cultured in RPMI medium (Corning) containing 10% FBS. The human breast cancer cell line MDA-MB-231 was cultured in DMEM medium (Corning) containing 10% FBS. All cell lines were maintained at 5% CO2 and 37° C. Paclitaxel resistant H460 cells were derived by treating cells once a week over 6 weeks, initially with 1 nM paclitaxel and then increasing dose incrementally up to 100 nM. Once resistance was confirmed, paclitaxel was withdrawn from the cells. Resistance to paclitaxel was maintained without presence of paclitaxel measured up to 2 months. A parental line was maintained for a similar number of passages as the resistant line. All experiments were performed using cells that had not been treated with paclitaxel in at least three passages.
Cells of interest were plated at 2000 cells per well in 96-well black tissue culture plate and allowed to adhere to the plate overnight. Viability assays were performed using 10% serum medium unless otherwise stated. Drugs were diluted in supplemented tissue culture medium and added at increasing concentrations, with DMSO as a vehicle control. […] Luminescence was measured using Tropix TR717 Microplate luminometer. Percentage of viable cells is relative to vehicle (100%). As a complementary viability assay, eBioscience Fixable Viability Dye eFluor 660(65-0864) was used to stain dead cells and analyzed using flow cytometry.

For series [3], the system named is LMD231-Luc cells. The experiment in a line: Breast cancer lung metastasis model (tail vein, bioluminescence). The note with it: for Growth of lung metastasis (bioluminescence): intraperitoneal, end of 7 weeks. Type of series: in vivo, nude mice. Here is the method:
FIG. 19A About 200,000 LMD-231 cells stably expressing luciferase was injected into the tail vein of 6 week old nude mice. Lung metastasis was formed in 2 weeks. Mice were treated with 100 mg/kg BFC1108 4 times a week by intraperitoneal route. Bioluminescent imaging was performed once a week and quantified.
About 200,000 LMD-231 cells stably expressing luciferase was injected into the tail vein of 6 week old nude mice. Lung metastasis was detectable in 2 weeks after injection of tumor cells. Mice were treated with 50 mg/kg of BFC1103 6 times a week by intraperitoneal injections. Bioluminescent imaging was performed once a week and quantified. * P<0.05.
For the lung metastatic study, 5 week old Nude mice were procured from Jackson Labs. About 200,000 LMD231-Luc2 cells in PBS were injected into the tail vein. Lung metastasis could be detected in 2 weeks' time. Treatments with BFC1108 at 100 mg/kg, 4 times a week, were started a day after the cells were injected. Body weight was measured twice a week. Bioluminescence was measured once a week while the mice are under anesthesia. At the end of the study mice were euthanized and lung tissues were dissected and fixed for immunohistochemical analysis.
For experimental lung metastases model, LMD-231 cells derived from MDA-MB-231 that repeatedly colonized lungs were used23. Lenti viral particles with luciferase expression vector (GenTarget, San Diego, Calif.) was used to transduce LMD-231 cells to obtain high luciferase expressing clone after clonal expansion. The stable expression of luciferase was monitored for 7 weeks in vitro before using in animal experiments.
All animal experiments were performed as per approved protocols from the IACUC at Oregon State University. 5 week old nude mice were procured from Jackson Labs (Bar Harbor, Me.). Treatments were started a day after the LMD-Luc cells (200,000 cells suspended in DPBS) were injected into the lateral tail vein. Body weight was measured twice a week. Bioluminescence was measured twice a week using IVIS Lumina II (PerkinElmer, Waltham, Mass.) as per manufacturer instructions, while the mice were under anesthesia.

Series [4] concerns LNCaP, HepG2, H460, A375, U251, ZR-75-1 cells. The experiment in a line: Viability of a range of cancer cell types. Format: cell-based, human. The source says: Cell titer glo assay (Promega, CA) was used for assessing viability as per manufacturer instructions. DAPI stain was used to assess apoptosis.
The test system of series [5] is MDA-MB-231/Bcl-2 cells. Nature of the series: Orthotopic breast cancer xenograft in mammary fat pad. Type of series: in vivo, NOD SCID mice. The note with it: 100 mg/kg twice a week; for Immunohistochemistry of tumor sections (TUNEL, Bcl-2 BH3, activated Bax, cleaved caspase-3): end of the study; for Tumor growth: intraperitoneal. The method, then: […] were implanted in the mammary fat pad of NOD SCID mice (N=10). Once palpable tumors were formed MTX was treated at 100 mg/kg twice a week by intraperitoneal injections. Tumor measurements were made with digital calipers twice a week.
106 MDA-MB-231/Bcl-2 cells were implanted in the mammary fat pad of NOD. SCID mice (n=8 per group). Once palpable tumors formed, mice were treated with 100 mg/kg BFC1108 twice a week by i.p. route. Tumor measurements were made with digital calipers twice a week.
All animal experiments were performed as per approved protocols from the IACUC at Oregon State University. 5 week old NOD.SCID mice were procured from Jackson Labs. Treatments were started once palpable tumors were detected. MTX was treated twice a week at 100 mg/kg dose. Body weight was measured twice a week. Tumor burden was measured twice a week using digital calipers.
All animal experiments were performed as per approved protocols from the IACUC at Oregon State University. For the mammary fat pad xenograft study, 5 week old NOD.SCID mice were procured form Jackson labs. About 10^6 cells were injected into both the lower flanks of mammary fat pad in PBS. Palpable tumors were detected in 4 weeks after which treatment with BFC1108 at 100 mg/kg twice a week continued till end of the study. Tumor mass was measured using digital calipers twice a week along with body weight. At the end of the study mice were euthanized and tumors were collected for immunohistochemical analysis.

In series [6] the test system is MDA-MB-231 cells with or without the Bcl-2 expression vector. The experiment in a line: Apoptosis in MDA-MB-231 cells (DAPI, annexin V staining). Type of series: cell-based, human. The note with it: 10% FBS.
For series [7] the following is noted: low dose; cited from earlier work.

For the molecule `CCCCc1ccc(NC(=O)CN(Cc2ccccc2)S(C)(=O)=O)cc1` [BFC1103, N-2-benzyl-N-1-(4-butylphenyl)-N-2-(methylsulfo-nyl) glycinamide], the “Bcl-2 dependent effect on viability, MCF-7/Bcl-2 vs MCF-7/Vector” value (from here on “Bcl-2 dependent effect … vs MCF-7/Vector”) in series [1] (10 μM, 24 h) was “reduced the viability of MCF-7 cells with high Bcl-2 levels, compared to Bcl-2 low expressing control cells”. For the same molecule, in series [2], the “Viability of H460 resistant vs parental line” value is listed as “reduced viability of resistant line preferentially”. In series [3] (50 mg/kg, 6 days per week), the “H&E analysis of lung tissue” value is listed as “potent suppression of tumor growth”; the “Ki67 staining of lung tissue” value is “lung tissues from vehicle treated mice had a significantly higher number of proliferating cells, as measured by Ki67 staining, than the BFC1103 treated mice”; the “Growth of lung metastasis (bioluminescence)” value is “significantly suppressed the growth of lung metastasis”. In series [4] (24 h, 10% FBS), the “Viability of various cancer cell lines” value was “reduced the viability of a host of cancer cell types including breast cancer ZR-75-1, non-small cell lung cancer H460, melanoma A375, liver cancer HepG2, and prostate cancer LNCaP cells”.

Take `CCOc1ccccc1NC(=O)c1cc(Cl)ccc1NC(=O)c1ccc(OC)cc1` [BFC1108, 5-chloro-N-(2-ethoxyphenyl)-2-[(4-methoxybenzoyl)amino]-benzamide]: in series [1] (48 h), the “Bcl-2 dependent effect … vs MCF-7/Vector” value was “MCF-7 cells with high-Bcl-2 expression are more sensitive to BFC1108”. Further, the “Viability of H460 resistant vs parental line” value in series [2] is “reduced viability of resistant line preferentially”. For the same molecule, in series [2] (paclitaxel 1 nM and BFC1108 20 μM, 24 hours), the “Cell viability, combination with paclitaxel” value is listed as “synergistic reduction in cell viability”. In series [5], the “Immunohistochemistry of tumor sections (TUNEL, Bcl-2 BH3, activated Bax, cleaved caspase-3)” value is given as “functional conversion of Bcl-2 leading to activation of intrinsic mitochondrial death pathway was validated in vivo” and the Tumor growth result is “significantly reduced the growth of a xenograft tumor”. Further, in series [3] (100 mg/kg, 4 times a week), the “Ki-67 staining of lung tissue” value is “only vehicle treated animals showed Ki-67 positivity” and the “Growth of lung metastasis (bioluminescence)” value is recorded as “suppressed the growth of lung metastasis”. Further, the “Apoptosis by annexin V staining” value in series [6] (10 μM, 48 h) was “increased apoptosis in MDA-MB-231/Bcl-2 cells was observed”. The “Viability of a range of cancer cell types” value in series [4] (48 h, 10% serum) was “reduce viability in a variety of cancer cell types including LNCaP, HepG2, H460, A375 and U251”.

For `CN(Cc1cnc2nc(N)nc(N)c2n1)c1ccc(C(=O)N[C@@H](CCC(=O)O)C(=O)O)cc1` [MTX, (2S)-2-[[4-[(2,4 diaminopteridin-6-yl)methylmethylamino]benzoyl]amino] pentanedioc acid], the “Bcl-2 dependent effect … vs MCF-7/Vector” value in series [1] (10 μM, 24 h) is “Bcl-2 dependent effect of MTX was consistent in estrogen receptor (ER) positive MCF-7 cells over-expressing Bcl-2”. Further, the bioavailability (commonly the share of a dose that reaches the circulation, judged against a reference dose that is usually intravenous) in series [7] was not above 70%. Moreover, in series [5], the “Immunohistochemistry of tumor sections (TUNEL, Bcl-2 BH3, activated Bax, cleaved caspase-3)” value is “caused a change in conformation of Bcl-2 and induced apoptosis in Bcl-2 over-expressing tumors”; the Tumor growth result was “significant inhibition of tumor growth”. The “Apoptosis by nuclear condensation and fragmentation (DAPI)” value in series [6] (10 μM) is “higher apoptosis rate in the presence of the Bcl-2 protein”. Besides, the “Apoptosis by annexin V staining” value in series [6] (indicated concentrations) is “increased apoptosis in the presence of the Bcl-2 protein”.
